This is an account of results in patent US20210405025A1, “IDENTIFYING COMPOUNDS FOR TREATING CANCER AND USE THEREOF” (THE UAB RESEARCH FOUNDATION, priority 2018, published 2021).

Structures can show the parent of a compound that is named as a salt.

For the first assay, the system named is relapsed AML cells. Briefly: Drug sensitivity assay, 1,536-well, 3-day culture with individual approved drugs at 10 μM, viability by alamarBlue.
Details: not given
The class given is cell-based, human. The procedure:
Drug sensitivity assays were performed using a 1,536-well platform where all cells and reagents were deposited in wells using an acoustic liquid handling unit that is highly accurate for dispensing of nanoliter volumes of liquid. […] After dispensing the cells into the wells, an independent drug at a known concentration is added to each well and incubated with the cells. After three days, the percentage of live cells in each well is determined to assess the killing efficiency of each compound. […] Cell viability assays are known to those of skill in the art. See, for example, Pemovska et al., Individualized systems medicine strategy to tailor treatments for patients with chemorefractory acute myeloid leukemia. Cancer Discovery 3:1416-1429, 2013; Pabst et al., Identification of small molecules that support human leukemia stem cell activity ex vivo. Nature Methods 11:436-442, 2014; Baccelli et al., A novel approach for the identification of efficient combination therapies in primary human acute myeloid leukemia specimens. Blood Cancer Journal 7:e529, 2017. In studies described herein, the 1,536-well format was utilized, which allowed for use of four times fewer cells as well as less drug and media components due to the small assay volume of 5 microliters. […] Other compounds like CellTiter-Glo (Promega, Madison, Wis.) are equally appropriate reagents for determining cell viability.
Conditions for the drug screening assays were as described in Pabst et al., Identification of small molecules that support human leukemia stem cell activity ex vivo, Nature Methods 11:436-442, 2014). Using this protocol, cells were cultured in Iscove's Modified Dulbecco's Medium (IMDM), 15% BIT (bovine serum albumin, insulin, transferrin; Stem Cell Technologies 09500 (Vancouver, Calif.)), 100 ng/ml SCF (Shenandoah 100-04 (Warwick, Pa.)), 50 ng/ml FLT3L (Shenandoah 100-21), 20 ng/ml IL-3 (Shenandoah 100-80), 20 ng/ml G-CSF (Shenandoah 100-72), 10^-4 M β-mercaptoethanol, gentamicin (50 μg/ml) and ciprofloxacin (10 μg/ml).
Cells were removed from liquid nitrogen and placed in a 37° C. bath, just until thawed. For 1,536-well screens utilizing 6,000 wells about 100 million cells were thawed. The volume was doubled with pre-warmed culture media and placed on ice for about one to two minutes. The cells were brought to a final volume of about 8 to 10 mL before spinning down at 1,100 rpm for 5 min at 10° C. The pelleted cells were resuspended in 10 mL of culture media and plated in a tissue-culture treated T75 flask at a density of 1 to 2 million cells/ml. The cells were cultured overnight prior to fluorescence-activated cell sorting of viable cells on the following day.
After cells were cultured overnight, a cell scraper was used to remove any cells that adhered to the plastic. The cells were gently pipetted up and down to break up aggregates. Then, the entire volume was transferred to a 50 mL conical tube through a 70 micron cell strainer to remove cell clumps. The T75 flask was rinsed and scraped with about 10 mL HBSS and transferred to the same 50 mL conical tube through the strainer. The harvested cells were spun down at 1,100 rpm for 5 min at 10° C. The cells were then resuspendd in about 300-500 microliters FACS buffer (HBSS+2% FBS+1× propidium iodide) and transferred to a FACS tube. The tube was placed on ice and viable cells that are forward- and side-scatter gated on viable myeloid blasts were sorted by FACS (the scatter gate should exclude small lymphocytes, large myeloid cells, and debris). After sorting the required number of viable cells, the cells were spun down at 1,100 rpm for 5 min at 10° C. and subsequently resuspended at 4,000-4,500 cells per 5 microliter volume of complete culture media with growth factors and penicillin/streptomycin.
Take `O=C(O)C1[O][Sb]2[O]C(=O)C([O]2)C(C(=O)O)[O][Sb]2[O]C(=O)C1[O]2` (stereo not drawn) [ANTIMONY POTASSIUM TARTRATE TRIHYDRATE]: the “#Cases >70% cell death” value was 3.

Staying with this assay, now noted: number of relapsed AML cases out of 18 tested with >70% cell death; 10 μM, 3-day culture.
`Clc1ccc(Cn2c(CN3CCCC3)nc3ccccc32)cc1` [CLEMIZOLE HYDROCHLORIDE]: the “#Cases >70% cell death” value turned out to be 1.
On the same count and under the same terms, then `N#C[C@@H]1CCCN1C(=O)CNC12CC3CC(CC(O)(C3)C1)C2` [VILDAGLIPTIN], with 1; and `CCOC(=O)C1=C(C)NC(C)=C(C(=O)OCC)C1c1ccccc1/C=C/C(=O)OC(C)(C)C` [LACIDIPINE], with 2.
Same read-out and setting: then `C[C@@H]1C[C@H]2[C@@H]3CCC4=CC(=O)C=C[C@]4(C)[C@@]3(F)[C@@H](O)C[C@]2(C)[C@@]1(O)C(=O)CO` [DEXAMETHASONE], with 2; and `CCCCOc1ccc(OCCCN2CCOCC2)cc1` [PRAMOXINE], with 1.
For the compound `CC(=O)Nc1ccc([C@H](C)C(=O)Nc2ncc(C(C)C)s2)cc1` [PHA-690509], the “#Cases >70% cell death” value is reported as 11.
The same measure, in the same setting: then `Nc1nc2nc[nH]c2c(=S)[nH]1` [THIOGUANINE], with 14.
With `COc1ccc(C[C@H](N)C(=O)N[C@H]2[C@@H](O)[C@H](n3cnc4c(N(C)C)ncnc43)O[C@@H]2CO)cc1` [PUROMYCIN], the “#Cases >70% cell death” value was determined as 18.
Same read-out and setting: the figure for `CCC(=O)OCC(=O)[C@@]1(OC(=O)CC)[C@@H](C)C[C@H]2[C@@H]3CCC4=CC(=O)C=C[C@]4(C)[C@@]3(Cl)[C@@H](O)C[C@@]21C` [BECLOMETHASONE DIPROPIONATE] is 1; for `CS(=O)(=O)N1CCc2c(-c3cnc(N)nc3)nc(N3CCOCC3)nc21` [CH5132799] it is 3; for `CCCCOc1cc(C(=O)OCCN(CC)CC)ccc1N` [BENOXINATE] it is 5.
With `CC1=C(C(=O)OC(C)C)C(c2cccc([N+](=O)[O-])c2)C(C(=O)OC2CN(C(c3ccccc3)c3ccccc3)C2)=C(N)N1` (stereo not drawn) [AZELNIDIPINE], the “#Cases >70% cell death” value amounted to 5.
Still for that read-out and setting: then `O=C(/C=C/c1cccnc1)NCCCCC1CCN(C(=O)c2ccccc2)CC1` [APO-866], with 17.
Still for that read-out and setting: the figure for `CN(C)CC(=O)N1CCC(c2ccc(NC(=O)c3nc(C#N)c[nH]3)c(C3=CCCCC3)c2)CC1` [JNJ-28312141] is 7.
Take `c1ccc2c(CCNc3ccc(Nc4ccncc4)cc3)c[nH]c2c1`: the “#Cases >70% cell death” value came to 12.
Still for that read-out and setting: then `CC(=O)[C@H]1CC[C@H]2[C@@H]3C=CC4=CC(=O)CC[C@@]4(C)[C@@H]3CC[C@]12C` [DYDROGESTERONE], with 1.
In the case of `O=C(O)/C=C/c1ccc(-c2ccc(O)c(C34CC5CC(CC(C5)C3)C4)c2)cc1` [ADAROTENE], the “#Cases >70% cell death” value amounted to 11.
On the same count and under the same terms, the figure for `COc1cc(Nc2c(C#N)cnc3cc(OCCCN4CCN(C)CC4)c(OC)cc23)c(Cl)cc1Cl` [BOSUTINIB] is 12.
Still for that read-out and setting: then `Clc1ccc(C(Cn2ccnc2)OCc2csc3c(Cl)cccc23)c(Cl)c1` (stereo not drawn) [SERTACONAZOLE], with 2; and `Cc1cc(C(=O)NOCCO)c(Nc2ccc(I)cc2F)n(C)c1=O` [AZD8330], with 2; and `Cc1cc(C#N)cc(C)c1Oc1nc(Nc2ccc(C#N)cc2)nc(N)c1Br` [ETRAVIRINE], with 1.
Still for that read-out and setting: the figure for `CN1CCOC(c2ccccc2)c2ccccc2C1` (stereo not drawn) [NEFOPAM] is 2; for `O=C(O)CCCCN(CCc1ccccc1OCc1ccc(CCc2ccccc2)cc1)Cc1ccc(C(=O)O)cc1` it is 1; for `O=C(c1ccc(/C=C/c2n[nH]c3ccccc23)cc1)N1CCNCC1` [KW-2449] it is 9.
Turning to `CCCn1c(=O)c2[nH]c(C34CC5CC(CC3C5)C4)nc2n(CCC)c1=O` [ROLOFYLLINE], the “#Cases >70% cell death” value is given as 1.
With `CC(C)(C)C(=O)C(Oc1ccc(Cl)cc1)n1ccnc1` (stereo not drawn) [CLIMBAZOLE], the “#Cases >70% cell death” value was 1.
`C[C@H]1C[C@H]2[C@@H]3CCC4=CC(=O)C=C[C@]4(C)[C@@]3(F)[C@@H](O)C[C@]2(C)[C@@]1(O)C(=O)CO` [BETAMETHASONE]: the “#Cases >70% cell death” value is given as 1.
With `C#C[C@]1(O)CC[C@H]2[C@@H]3CCc4cc(OC5CCCC5)ccc4[C@H]3CC[C@@]21C` [QUINESTROL], the “#Cases >70% cell death” value is recorded as 15.
With `Clc1ccc(COC(Cn2ccnc2)c2ccc(Cl)cc2Cl)c(Cl)c1` (stereo not drawn) [MICONAZOLE], the “#Cases >70% cell death” value amounted to 1.
Same read-out and setting: then `CCCSc1ccc2nc(NC(=O)OC)[nH]c2c1` [ALBENDAZOLE], with 9; and `COC(=O)Nc1nc2ccc(Sc3ccccc3)cc2[nH]1` [FENBENDAZOLE], with 5.
For the compound `O=C(Nc1ccccc1Br)N[C@@H]1CCN(c2ccc(C(F)(F)F)cn2)C1` [SB-705498], the “#Cases >70% cell death” value was determined as 1.
On the same count and under the same terms, the figure for `O=c1[nH]cc(F)c(=O)[nH]1` [FLUOROURACIL] is 4; for `CC[C@@H](C(=O)O)[C@@H]1O[C@@H]([C@@H](C)[C@H](O)[C@H](C)C(=O)[C@H](CC)[C@H]2O[C@]3(C=C[C@@H](O)[C@]4(CC[C@@](C)([C@H]5CC[C@](O)(CC)[C@H](C)O5)O4)O3)[C@H](C)C[C@@H]2C)[C@@H](C)C[C@@H]1C` [NARASIN] it is 8.
Same read-out and setting: the figure for `COc1cccc(-c2cc(F)ccc2[C@H]2Cc3nc(N)nc(C)c3C(=O)N2)n1` [HSP-990] is 17; for `O=S(=O)([O-])CCSSCCS(=O)(=O)[O-].[Na+].[Na+]` [DIMESNA] it is 1.
Same read-out and setting: then `N#CN=C(NCCCCCCOc1ccc(Cl)cc1)Nc1ccncc1` [GMX1778], with 16; and `CCN(CC)CCOc1ccc2c(c1)C(=O)c1cc(OCCN(CC)CC)ccc1-2` [TILORONE], with 10.
As to `CCc1nn(CCCN2CCN(c3cccc(Cl)c3)CC2)c(=O)n1CCOc1ccccc1` [NEFAZODONE], the “#Cases >70% cell death” value is listed as 1.
The same measure, in the same setting: then `Nc1ncnc2c1ncn2CCOCP(=O)(O)O` [ADEFOVIR], with 18; and `N[C@@H](Cc1ccc(N(CCCl)CCCl)cc1)C(=O)O`, with 4.
As for NONOXYNOL-9, the “#Cases >70% cell death” value is 2.
The same measure, in the same setting: then `C[C@@H]1O[C@@H](O[C@H]2C[C@@H](O)[C@]3(CO)[C@H]4[C@H](O)C[C@]5(C)[C@@H](C6=CC(=O)OC6)CC[C@]5(O)[C@@H]4CC[C@]3(O)C2)[C@H](O)[C@H](O)[C@H]1O` [OUABAIN], with 18; and `COC(=O)C1=C(C)NC(C)=C(C(=O)OCCN2CCN(C(c3ccccc3)c3ccccc3)CC2)C1c1cccc([N+](=O)[O-])c1` (stereo not drawn) [MANIDIPINE], with 5.
For the compound `Nc1nc(Cl)nc2c1ncn2[C@H]1C[C@H](O)[C@@H](CO)O1` [CLADRIBINE], the “#Cases >70% cell death” value worked out at 17.
For `CC(=O)CC(c1ccc([N+](=O)[O-])cc1)c1c(O)c2ccccc2oc1=O` (stereo not drawn) [ACENOCOUMAROL], the “#Cases >70% cell death” value turned out to be 4.
As for `CC(=O)O[C@H]1C[C@H](O[C@H]2[C@@H](O)C[C@H](O[C@H]3[C@@H](O)C[C@H](O[C@H]4CC[C@@]5(C)[C@H](CC[C@@H]6[C@@H]5C[C@@H](O)[C@]5(C)[C@@H](C7=CC(=O)OC7)CC[C@]65O)C4)O[C@@H]3C)O[C@@H]2C)O[C@H](C)[C@H]1O[C@@H]1O[C@H](CO)[C@@H](O)[C@H](O)[C@H]1O` [LANATOSIDE C], the “#Cases >70% cell death” value is on record as 18.
For `CCN1CCN(Cc2ccc(-c3cc4c(N[C@H](C)c5ccccc5)ncnc4[nH]3)cc2)CC1` [AEE-788], the “#Cases >70% cell death” value was found to be 13.
Still for that read-out and setting: then `Cc1cc(N)c2ccccc2[n+]1CCCCCCCCCC[n+]1c(C)cc(N)c2ccccc21` [DEQUALINIUM CHLORIDE], with 17; and AZD-1152, with 5.
